Measurements reported in patent publication US12570642B2, “GLP-IR modulating compounds” (Gilead Sciences, Inc., priority 2021, dated 2026).
pEC50: −log10 of the molar value.

Target: GLP-1R (Homo sapiens, UniProt P43220)
Experiment: GLP-1R Activation - cAMP Assay
Type: cell-based
Settings: cAMP increase in CHO cells stably expressing GLP-1R; each compound run on one of the two cAMP assays (Assay 1 or Assay 2, not specified)
Method in brief: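 CHO cells stably expressing GLP-1R, plated at 1,000 cells/well overnight, then equilibrated 1 h in HBSS with 20 mM Hepes and 0.1% BSA. Agonist added as 10-point dose response for 30 min at 37 °C. cAMP measured by HTRF (Cisbio Gs Dynamic kit); EC50 from sigmoidal fit.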

Chain of GLP-1R (P43220 24-463): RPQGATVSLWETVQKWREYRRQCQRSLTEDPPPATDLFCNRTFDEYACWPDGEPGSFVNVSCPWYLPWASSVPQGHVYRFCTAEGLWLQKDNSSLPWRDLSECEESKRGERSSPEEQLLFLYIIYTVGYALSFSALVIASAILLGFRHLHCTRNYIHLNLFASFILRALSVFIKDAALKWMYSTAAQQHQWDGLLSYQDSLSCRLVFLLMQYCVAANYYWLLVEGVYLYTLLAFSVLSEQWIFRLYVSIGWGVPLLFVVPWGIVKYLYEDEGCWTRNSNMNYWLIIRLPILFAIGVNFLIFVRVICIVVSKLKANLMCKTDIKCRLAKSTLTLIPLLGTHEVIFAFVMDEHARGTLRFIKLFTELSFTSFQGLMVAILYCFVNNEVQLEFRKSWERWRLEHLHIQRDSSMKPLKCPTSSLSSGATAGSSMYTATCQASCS

Row | Structure (SMILES) | pEC50
1 | COC(C)(C)C(C)n1c(Cc2cc(F)c(-c3cccc(OCc4ccc(Cl)cc4F)n3)cc2F)nc2ccc(C(=O)O)cc21 (stereo not shown) [Example 507, 2-(4-(6-((4-chloro-2-fluorobenzyl)oxy)pyridin-2-yl)-2,5-difluorobenzyl)-1-(3-methoxy-3-methylbutan-2-yl)-1H-benzo[d]imidazole-6-carboxylic acid] | 9.45
2 | CC1(C)COC[C@H]1n1c(Cc2ccc(-c3nc(OCc4ccc(C#N)cc4)c(F)cc3F)cc2F)nc2ccc(C(=O)O)cc21 [Example 152, (S)-2-(4-(6-((4-cyanobenzyl)oxy)-3,5-difluoropyridin-2-yl)-2-fluorobenzyl)-1-(4,4-dimethyltetrahydrofuran-3-yl)-1H-benzo[d]imidazole-6-carboxylic Acid] | 9.94
3 | CC1(C)COC[C@H]1n1c(Cc2ccc(-c3ccc(F)c(OCc4ccc(C#N)cc4F)n3)cc2)nc2ccc(C(=O)O)cc21 [Example 277, (S)-2-(4-(6-((4-cyano-2-fluorobenzyl)oxy)-5-fluoropyridin-2-yl)benzyl)-1-(4,4-dimethyltetrahydrofuran-3-yl)-1H-benzo[d]imidazole-6-carboxylic acid] | 9.47
4 | N#Cc1ccc(COc2cccc(-c3cc(F)c(Cc4nc5ccc(C(=O)O)cc5n4[C@H]4COC[C@H]4OCC(F)F)cc3F)n2)c(F)c1 [Example 541, 2-(4-(6-((4-cyano-2-fluorobenzyl)oxy)pyridin-2-yl)-2,5-difluorobenzyl)-1-((3S,4S)-4-(2,2-difluoroethoxy)tetrahydrofuran-3-yl)-1H-benzo[d]imidazole-6-carboxylic acid] | 9.36
5 | N#Cc1ccc(COc2cccc(-c3cc(F)c(Cc4nc5ccc(C(=O)O)cc5n4C4CCCC4)cc3F)n2)c(F)c1 [Example 6, 2-(4-(6-((4-cyano-2-fluorobenzyl)oxy)pyridin-2-yl)-2,5-difluorobenzyl)-1-cyclopentyl-1H-benzo[d]imidazole-6-carboxylic acid] | 8.07
6 | N#Cc1ccc(COc2cccc(-c3cc(F)c(Cc4nc5ccc(C(=O)O)cc5n4[C@@H]4COC[C@H]4F)cc3F)n2)c(F)c1 (racemic) [Example 77, 2-(4-(6-((4-cyano-2-fluorobenzyl)oxy)pyridin-2-yl)-2,5-difluorobenzyl)-1-((3R,4S)-4-fluorotetrahydrofuran-3-yl)-1H-benzo[d]imidazole-6-carboxylic Acid] | 8.72
7 | CC1(C)COC[C@H]1n1c(Cc2c(F)cc(-c3ccc(F)c(OCc4ccc(C#N)cc4)n3)c(F)c2F)nc2c(F)cc(C(=O)O)cc21 [Example 316, (S)-2-(4-(6-((4-cyanobenzyl)oxy)-5-fluoropyridin-2-yl)-2,3,6-trifluorobenzyl)-1-(4,4-dimethyltetrahydrofuran-3-yl)-4-fluoro-1H-benzo[d]imidazole-6-carboxylic acid] | 9.85
8 | CC1(C)COC[C@H]1n1c(Cn2cc(Cl)c(-c3cccc(OCc4ccc(C#N)cc4F)n3)cc2=O)nc2c(F)cc(C(=O)O)cc21 [Example 326, (S)-2-((5′-chloro-6-((4-cyano-2-fluorobenzyl)oxy)-2′-oxo-[2,4′-bipyridin]-1′(2′H)-yl)methyl)-1-(4,4-dimethyltetrahydrofuran-3-yl)-4-fluoro-1H-benzo[d]imidazole-6-carboxylic acid] | 9.63
9 | N#Cc1ccc(COc2cccc(-c3cc(F)c(Cc4nc5ccc(C(=O)O)cc5n4C[C@@]45CO[C@@H](CCO4)C5)cc3F)n2)c(F)c1 (racemic) [Example 272, 1-(((5S)-2,6-dioxabicyclo[3.2.1]octan-1-yl)methyl)-2-(4-(6-((4-cyano-2-fluorobenzyl)oxy)pyridin-2-yl)-2,5-difluorobenzyl)-1H-benzo[d]imidazole-6-carboxylic acid] | 8.68
10 | Cc1cc(Cc2nc3ccc(C(=O)O)cc3n2[C@@H]2COCC2(C)C)c(Cl)cc1-c1cccc(OCc2ccc(C#N)cc2)n1 [Example 134, (S)-2-(2-chloro-4-(6-((4-cyanobenzyl)oxy)pyridin-2-yl)-5-methylbenzyl)-1-(4,4-dimethyltetrahydrofuran-3-yl)-1H-benzo[d]imidazole-6-carboxylic Acid] | 10.11
